# Experiments:
# [1] = target: T1, GST-LXRβ ligand-binding domain (Homo sapiens, UniProt P55055, DUP175-175); assay: TR-FRETβ activity assay (LXRβ-LBD / NCoA3 coactivator peptide, prestimulated with 24(S)-25-epoxycholesterol); assay type: biochemical; parameters: key to behavior in FRET assay: ag=agonist; ia=inverse agonist; conditions: for EC50: 1 μM 24(S)-25-epoxycholesterol as prestimulating agonist, read-out: FRETβ activity range (EC50); for behavior in FRET assay: agonist or inverse agonist
# T1 construct: amino acids 156-461; NP009052; made in house; host or cells: E. coli
# T1 sequence (P55055 with tags, fused parts or gaps DUP175-175): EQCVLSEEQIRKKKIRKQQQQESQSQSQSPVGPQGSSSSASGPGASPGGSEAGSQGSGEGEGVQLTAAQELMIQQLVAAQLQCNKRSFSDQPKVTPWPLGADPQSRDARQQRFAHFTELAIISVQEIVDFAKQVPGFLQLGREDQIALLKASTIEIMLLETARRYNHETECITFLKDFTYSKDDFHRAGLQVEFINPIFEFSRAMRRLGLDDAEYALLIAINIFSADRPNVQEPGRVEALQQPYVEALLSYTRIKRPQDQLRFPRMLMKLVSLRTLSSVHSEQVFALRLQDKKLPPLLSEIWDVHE
# Outline: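 E. coli-expressed GST-LXRβ LBD (aa 156-461) at 76 nM with biotinylated NCoA3 coactivator peptide (400 nM), in 240 mM KCl, BSA and Triton-X-100. Anti-GST-Tb cryptate/streptavidin-XL665 TR-FRET after 1 h equilibration at 4 °C, excitation 340 nm, emission 615 and 665 nm. Run in triplicate.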
# [2] = Pharmacokinetics in mice, blood and liver exposure via LC-MS; assay type: in vivo; conditions: for target tissue liver reached (in words): mice, systemic exposure minimized; for liver/blood ratio, 4 h / blood exposure, 4 h / liver exposure, 4 h: Dose (mg) 20, C57BL/6J mice; for blood exposure, 4 h / liver exposure, 4 h: 4 h after administration
# Procedure: The pharmacokinetics of different sulfonamides was assessed in mice after single dosing and oral and intraperitoneal administrations. Blood and liver exposure was measured via LC-MS.
# The study design was as follows:
# Animals: C57BL/6J (Janvier) males
# Diet: standard rodent chow
# Vehicle for i.p. injection: 0.5% HPMC (w:v) in water, injection volume: <5 mL/kg
# Animal handling: animals were withdrawn from food at least 12 h before administration
# Design: single dose oral and bid ip administration, n=3 animals per group
# Sacrifice: at t=4 h after administration
# Bioanalytics: LC-MS of liver and blood samples
SMILES,EC50 [1] [nM],behavior in FRET assay [1],target tissue liver reached (in words) [2],"liver/blood ratio, 4 h ([2]; po)","blood exposure, 4 h ([2]; po)","liver exposure, 4 h ([2]; po)","liver/blood ratio, 4 h ([2]; ip)","blood exposure, 4 h ([2]; ip)","liver exposure, 4 h ([2]; ip)"
Cc1ccc2ccccc2c1S(=O)(=O)N(Cc1ccc(-c2cccc(S(=O)(=O)CC(=O)O)c2)cc1)Cc1cccc(C(F)(F)F)c1 [11/19],1000 to 10000,ia,effectively reached,po: 125,po: 0.01 μM,po: 1.07 μM,–,–,–
Cc1cc(C)c(S(=O)(=O)N(Cc2ccc(-c3cccc(S(=O)(=O)C(C)(C)C(=O)O)c3)cc2)Cc2ccc(C(F)(F)F)o2)c(C)c1 [5/2],1000 to 10000,ia,–,–,–,–,–,–,–
Cc1cc(C)c(S(=O)(=O)N(Cc2ccc(-c3cccc(CC(=O)O)c3)cc2)C(C)c2ccc(C(F)(F)F)o2)c(C)c1 (stereo not shown) [2/2],100 to 1000,ia,–,–,–,–,–,–,–
COc1cc(-c2cccc(C(C)(C)C(=O)O)c2)ccc1CN(Cc1ccc(C(F)(F)F)o1)S(=O)(=O)c1c(C)cc(C)cc1C [10/4],< 100,ia,effectively reached,po: 11,po: 189 ng/mL,po: 2136 ng/mL,–,–,–
Cc1cc(C)c(S(=O)(=O)N(Cc2ccc(-c3cccc(C(C)(C)C(=O)O)c3)cc2)Cc2ccc(C(F)(F)F)o2)c(C)c1 [7/5],100 to 1000,ia,effectively reached,po: 18,po: 300 ng/mL,po: 5398 ng/mL,–,–,–
Cc1cc(C)c(S(=O)(=O)N(Cc2ccc(C(F)(F)F)o2)Cc2ccc(-c3cccc(C(C)(C)C(=O)O)c3)cc2Cl)c(C)c1 [10/5],< 100,ia,effectively reached,po: 21,po: 242 ng/mL,po: 5120 ng/mL,–,–,–

# Results, then the compound that gave them:
EC50 [1] [nM],behavior in FRET assay [1],target tissue liver reached (in words) [2],"liver/blood ratio, 4 h ([2]; po)","blood exposure, 4 h ([2]; po)","liver exposure, 4 h ([2]; po)","liver/blood ratio, 4 h ([2]; ip)","blood exposure, 4 h ([2]; ip)","liver exposure, 4 h ([2]; ip)",SMILES
1000 to 10000,–,effectively reached,po: 31,po: 0.15 μM,po: 4.6 μM,ip: 27,ip: 0.34 μM,ip: 9.3 μM,"Cc1cc(C)c(S(=O)(=O)N(Cc2ccc(-c3cccc(S(=O)(=O)CC(=O)O)c3)cc2)Cc2ccc(C(F)(F)F)o2)c(C)c1 [Example 5, 2-((4′-(((2,4,6-Trimethyl-N-((5-(trifluoromethyl)furan-2-yl)methyl)phenyl)sulfonamido)methyl)-[1,1′-biphenyl]-3-yl)sulfonyl)acetic acid]"
< 100,ia,effectively reached,po: 25,po: 231 ng/mL,po: 5882 ng/mL,–,–,–,"Cc1ccc2ccccc2c1S(=O)(=O)N(Cc1ccc(-c2cccc(C(C)(C)C(=O)O)c2)cc1)Cc1ccc(C(F)(F)F)o1 [Example 24, 2-Methyl-2-(4′-(((2-methyl-N-((5-(trifluoromethyl)furan-2-yl)methyl)naphthalene)-1-sulfonamido)methyl)-[1,1′-biphenyl]-3-yl)propanoic acid]"
100 to 1000,ia,–,–,–,–,–,–,–,"Cc1cc(C)c(S(=O)(=O)N(Cc2ccc(-c3cccc(CC(=O)O)c3)cc2)Cc2ccc(C(F)(F)F)o2)c(C)c1 [Example 2, 2-(4′-(((2,4,6-Trimethyl-N-((5-(trifluoromethyl)furan-2-yl)methyl)phenyl)sulfonamido)methyl)-[1,1′-biphenyl]-3-yl)acetic acid]"
< 100,ia,–,po: 0.56,po: 115 ng/mL,po: 64 ng/mL,–,–,–,Cc1cc(C)c(S(=O)(=O)N(Cc2ccc(-c3cc(F)c(CO)c(S(C)(=O)=O)c3)cc2)Cc2ccc(C(F)(F)F)o2)c(C)c1 [Example C3/2]

# — US20200115357A1, “LIVER X RECEPTORS (LXR) MODULATORS” (Phenex-FXR GmbH, priority 2017, published 2020)
